# Test results reported in ChEMBL document CHEMBL4483862, “Open-source discovery of chemical leads for next-generation chemoprotective antimalarials” (2018).
# Tested on: Plasmodium berghei
# Test: Luciferase/luciferin-expressing antifolate-resistant parasites were used to infect a culture of HepG2 cells that were pre-incubated with compounds. Infected hepatocytes emit light due to the luciferase reaction. Assay results are presented as the percent inhibition of light emission compared to control. […]
# Type: functional
# Details: sporozoite; for IC90: read-out: LUCIFERASE INFECTION ASSAY - IC90
# [1] = read-out: LUCIFERASE INFECTION ASSAY - IC50
Compound,IC90 [µM],IC50 [1] [µM],also measured
C/C=C(/C(=C/C)c1ccc(O)cc1)c1ccc(O)cc1 [DIENESTROL],> 12.4,–,"IC50 (FFLUC_HILL_SLOPE 1.35, FFLUC_R_SQUARED 0.489, HEPG2TOX_HILL_SLOPE 1.17, HEPG2TOX_R_SQUARED 0.908, PBLUC_HILL_SLOPE 0.733, PBLUC_R_SQUARED 0.69, read-out: LUCIFERASE INFECTION ASSAY - IC50): 1.24 µM"
C[C@H]1O[C@@H](O[C@H]2[C@@H](O)C[C@H](O[C@H]3[C@@H](O)C[C@H](O[C@H]4CC[C@@]5(C)[C@H](CC[C@@H]6[C@@H]5C[C@@H](O)[C@]5(C)[C@@H](C7=CC(=O)OC7)CC[C@]65O)C4)O[C@@H]3C)O[C@@H]2C)C[C@H](O)[C@@H]1O [DIGOXIN],0.117,0.0489,–
C[C@]12CC[C@@H]3c4ccc(O)cc4CC[C@H]3[C@@H]1CC[C@@H]2O [ESTRADIOL],9.85,5.43,–
CCOc1ccc2nc3cc(N)ccc3c(N)c2c1 [ETHACRIDINE],> 9.61,–,"IC50 (HEPG2TOX_HILL_SLOPE 3.77, HEPG2TOX_R_SQUARED 0.987, read-out: LUCIFERASE INFECTION ASSAY - IC50): > 9.61 µM"
C=CCc1ccc(O)c(-c2ccc(O)c(CC=C)c2)c1 [HONOKIOL],> 12.4,–,"IC50 (FFLUC_HILL_SLOPE 14.9, FFLUC_R_SQUARED 0.388, read-out: LUCIFERASE INFECTION ASSAY - IC50): > 12.4 µM"
CC(C)(C)c1ccc(Oc2ccc(N)cn2)cc1 [LIMANTRAFIN],> 13.6,–,"IC50 (PBLUC_HILL_SLOPE 0.71, PBLUC_R_SQUARED 0.895, read-out: LUCIFERASE INFECTION ASSAY - IC50): 1.19 µM"
CC(=O)c1c(C)[n+]([O-])c2ccccc2[n+]1[O-] [MEQUINDOX],> 15.1,–,"IC50 (FFLUC_HILL_SLOPE 0.566, FFLUC_R_SQUARED 0.11, read-out: LUCIFERASE INFECTION ASSAY - IC50): > 15.1 µM"
CCOc1cc(-c2nccc3cc(OC)c(OC)cc23)cc(OCC)c1OCC [OCTAVERINE],8.02,–,"IC50 (PBLUC_HILL_SLOPE 10.1, PBLUC_R_SQUARED 0.35, read-out: LUCIFERASE INFECTION ASSAY - IC50): 6.45 µM"
COc1ccc(Cc2nccc3cc(OC)c(OC)cc23)cc1OC [PAPAVERINE],> 8.78,> 8.78,–
O=C1c2ccccc2C(=O)c2sccc21 [THIOPHENONAPHTHOQUINONE],> 15.4,–,"IC50 (PBLUC_HILL_SLOPE 0.947, PBLUC_R_SQUARED 0.583, read-out: LUCIFERASE INFECTION ASSAY - IC50): 2.81 µM"
